Laboratory results published in article PMC8509428, “The Phenoxyalkyltriazine Antagonists for 5-HT6 Receptor with Promising Procognitive and Pharmacokinetic Properties In Vivo in Search for a Novel Therapeutic Approach to Dementia Diseases” (International Journal of Molecular Sciences, 2021).
Like-named read-outs stand apart in the source and are kept apart here.

Assays:
5-HT2A receptor = biological target: T1, 5-HT2A receptor (Homo sapiens, UniProt P28223); experiment: Functional assay for 5-HT2A receptor (aequorin, CHO-K1 cells); type: cell-based
T1 construct: expressed in transfected cells; host or cells: CHO-K1
T1 sequence (P28223 whole entry): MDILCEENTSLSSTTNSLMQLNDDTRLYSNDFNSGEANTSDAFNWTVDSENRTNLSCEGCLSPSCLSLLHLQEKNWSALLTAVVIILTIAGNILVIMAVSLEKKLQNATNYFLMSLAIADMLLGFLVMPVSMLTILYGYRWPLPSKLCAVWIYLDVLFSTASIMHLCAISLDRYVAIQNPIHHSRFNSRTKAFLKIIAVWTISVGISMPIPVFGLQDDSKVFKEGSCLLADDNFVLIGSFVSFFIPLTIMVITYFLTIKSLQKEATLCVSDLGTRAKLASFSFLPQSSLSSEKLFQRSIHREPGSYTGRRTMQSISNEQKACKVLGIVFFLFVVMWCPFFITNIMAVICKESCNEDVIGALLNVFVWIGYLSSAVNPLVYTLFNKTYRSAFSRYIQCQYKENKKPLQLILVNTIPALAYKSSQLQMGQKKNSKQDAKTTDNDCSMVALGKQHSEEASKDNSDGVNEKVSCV
Description: Test compounds were dissolved in dimethyl sulfoxide (DMSO) at a concentration of 10 mM. Serial dilutions were prepared in a 96-well microplate in assay buffer and eight concentrations were tested. A cellular aequorin-based functional assay was performed with recombinant CHO-K1 cells expressing mitochondrially targeted aequorin, human GPCR and the promiscuous G protein α16 for 5-HT2A. […] After thawing, cells were transferred to assay buffer (DMEM/HAM’s F12 with 0.1% protease-free BSA) and centrifuged. The cell pellet was resuspended in assay buffer and coelenterazine h was added at final concentrations of 5 μM. […] After 1 h of incubation, 50 μL of the cells suspension was dispensed using automatic injectors built into the plate reader POLARstar Omega, (BMG Labtech, Ortenberg, Germany) onto a white opaque 96-well microplates preloaded with test compounds. Immediate light emission generated following calcium mobilization was recorded for 30 s. In antagonist mode, after 30 min of incubation, the reference agonist was added to the above assay mix and light emission was recorded again. The final concentration of the reference agonist was equal to EC80.

[1] = test system: neuroblastoma SH-SY5Y cells; experiment: Neurotoxicity in SH-SY5Y (MTS and LDH assays); type: cell-based, human; conditions: 100 μM, 48 h, vs control cells
Description: Human neuroblastoma cell line SH-SY5Y (ATCC® no. CRL-2266™) was used for neurotoxicity evaluation. […] To perform dose–response analysis, 2-fold serial dilutions (12 points) were prepared. Treatment with compounds was performed for 48 h. After the incubation time, 100μL of culture medium was transferred to black well plates to examined membrane integrity using the CytoTox-ONE™ Homogeneous Membrane Integrity Assay (Promega, Madison, WI, USA) following the manufacturer’s protocol. Briefly, a volume of 100 µL CytoTox-ONE™ reagent was added to each well and carefully mixed under gentle shaking. […] The plate was incubated at room temperature for 15 min and the fluorescence was then recorded at an excitation wavelength of 560 nm and an emission wavelength of 590 nm using the microplate reader EnSpire (PerkinElmer, Waltham, MA, USA). […] Cytotoxicity is expressed as a percentage relative to the positive control, which is assumed to be responsible for 100% LDH release.
The cell viability was examined using an MTS-based [3-(4,5-dimethylthiazol-2-yl)-5-(3-carboxymethoxyphenyl)-2-(4-sulfophenyl)-2 H tetrazolium] […] After incubation time, formazan product turnover absorbance was measured at 490 nm using the microplate reader EnSpire (PerkinElmer, Waltham, MA, USA). […]

SH-SY5Y cells = experiment: Intracellular ROS, DCFH-DA assay (neuroprotection); type: cell-based, human; conditions: SH-SY5Y neuroblastoma cells
Description: ROS measurement was assayed by 2′,7′-Dichlorofluorescin diacetate (DCFH-DA, Sigma D6883). […] Briefly, SH-SY5Y cells (4 × 10^3 cells/well) were seeded in a black-sided, clear-bottom 384-well plate (Life Technologies, Warsaw, Poland) in DMEM without phenol red (Life Technologies, Warsaw, Poland) supplemented with 5% FBS and cultured for 24 h. The next day, the medium was removed, the cells were washed once with HBSS and treated for 45 min with non-fluorescent dye DCFH-DA (final concentration 25 μM, freshly prepared in warm HBSS). […] After that, toxic agents were added: H2O2 (200 μM), oxaliplatin (OXA, 25 μM) and rotenone (ROT, 32.5 μM) and the cells were incubated for 5 h. In our preliminary experiments, different concentration of toxic agents was tested to choose the convenient one that leads to 50% cell death. As a positive control, the cells were incubated alone with toxic agents. As a vehicle control, the cells were incubated with HBSS with 0.1% DMSO. In the presence of ROS, the non-fluorescent dye DCFH-DA is oxidized, producing fluorescent dichlorofluorescein (DCF). Fluorescence was measured at Ex/Em = 485/535 nm using the microplate reader EnSpire.

rats = experiment: Elevated plus-maze (EPM) test; type: in vivo, rat; conditions: for Open Arms % of entries / Open Arms % of time / Open Arms Distance / Open Arms Entries / Open Arms Time: mean ± SEM
Excerpt: The testing procedure was based on a method described by. Plus-maze apparatus (an automated device produced by Campden Instruments Ltd. (Leicestershire, UK) made of durable, high density, non-porous black plastic, elevated to a height of 50 cm, consisted of two open arms (50 × 10 cm) and two closed arms (50 × 10 cm, and 30 cm high walls), arranged so that the two arms of each type were opposite each other. The floor of the plus-maze was made of infrared transparent material what means that there are no visible sensors. Plus-maze apparatus was connected to PC software by control chassis. The experiments were conducted in a darkened room, only the center of the maze was illuminated with low-intensity light (30 lux measured on the maze level). Each rat was gently placed in the center of the plus-maze, facing one of the closed arms, immediately after a 5-min adaptation period in a plastic black box (60 × 60 × 35 cm), to increase the overall activity in the EPM. During a 5-min test period, automated Motor Monitor System recorded the number of entries into the closed and open arms and the time spent in either type of arms. The device counted an effective arm-entry when the four paws of a rat were into any arm. The maze was thoroughly cleaned after each trial. The EPM test is an “unconditional” anxiety-like test based on rodents’ natural aversion to heights and open space.

## CCC(Oc1cccc(Cl)c1Cl)c1nc(N)nc(N2CCN(C)CC2)n1 (racemic) [Compound 2, (RS)-4-[1-(2,3-dichlorophenoxy)propyl]-6-(4-methylpiperazin-1-yl)-1,3,5-triazin-2-amine]
5-HT2A receptor; Table S2, read-out: 5-HT2A Antagonist mode Emax
  Emax: 1%
5-HT2A receptor; read-out: 5-HT2AR Agonist Mode Emax
  Emax: 21 ± 0.6%
[1]
  increase of LDH leakage: 86%
SH-SY5Y cells
  protective activity against rotenone-induced neurotoxicity: protective activity
rats; 0.3 mg/kg i.p.
  Open Arms % of entries: 23.97 ± 4.97%
  Open Arms % of time: 14.85 ± 3.30%
  Open Arms Distance: 423 ± 87 cm
  Open Arms Entries: 6.50 ± 1.60
  Open Arms Time: 36.85 ± 8.90 s
rats; 1 mg/kg i.p.
  Open Arms % of entries: 26.53 ± 3.69%
  Open Arms % of time: 10.10 ± 1.20%
  Open Arms Distance: 279 ± 45 cm
  Open Arms Entries: 5.86 ± 0.90
  Open Arms Time: 24.75 ± 3.19 s
rats; 3 mg/kg i.p.
  increase of distance travelled in the open arms vs vehicle: 134%
  increase of number of open-arm entries vs vehicle: 160%
  increase of percentage of time spent in open arms vs vehicle: 137%
  increase of time spent in the open arms vs vehicle: 120%
  Open Arms % of entries: 41.89 ± 3.37%
  Open Arms % of time: 30.00 ± 3.60%
  Open Arms Distance: 914 ± 126 cm
  Open Arms Entries: 13.00 ± 2.30
  Open Arms Time: 72.23 ± 7.30 s
rats; 3 mg/kg i.p., not significant
  increase of percentage of entries into open arms vs vehicle: 68%
rats; i.p.
  dose with anxiolytic-like activity in EPM test: 3 mg/kg

## CCC(Oc1ccccc1)c1nc(N)nc(N2CCN(C)CC2)n1 (racemic) [Compound 3, (RS)-4-(4-methylpiperazin-1-yl)-6-(1-phenoxypropyl)-1,3,5-triazin-2-amine]
SH-SY5Y cells
  protective activity against rotenone-induced neurotoxicity: protective activity
rats; 0.3 mg/kg i.p.
  Open Arms % of entries: 28.54 ± 6.70%
  Open Arms % of time: 9.84 ± 1.50%
  Open Arms Distance: 340 ± 59 cm
  Open Arms Entries: 5.28 ± 0.42
  Open Arms Time: 24.27 ± 3.41 s
rats; 1 mg/kg i.p.
  Open Arms % of entries: 33.64 ± 2.70%
  Open Arms % of time: 18.30 ± 4.10%
  Open Arms Distance: 646 ± 145 cm
  Open Arms Entries: 8.43 ± 1.36
  Open Arms Time: 44.24 ± 9.71 s
rats; 3 mg/kg i.p.
  Open Arms % of entries: 24.39 ± 7.60%
  Open Arms % of time: 7.03 ± 2.00%
  Open Arms Distance: 231 ± 87 cm
  Open Arms Entries: 4.17 ± 1.10
  Open Arms Time: 19.00 ± 5.50 s
rats; i.p., 60 min before test
  anxiolytic-like activity in EPM test: did not show anxiolytic-like activity
